The subject of one series is T-47D ER+ cells. The settings on record: Laplante et al. 2008; cited from earlier work.
For the next series, the system named is U2OS cells. Put plainly: Cell viability (ATP) of unmodified U2OS cells, parallel to reporter assay. Type of series: cell-based, human. As for the experimental part:
To separate the antagonist activity of test compounds from the cytotoxic effect on U2OS cells (cell line derived from osteosarcoma), an experiment for determination of cell viability was performed in parallel with the reporter assay. Original, genetically unmodified U2OS cells were grown under the same conditions as the reporter cells. These cells were further treated and incubated with the compounds in a completely identical manner and for the same time as cells in the reporter assay. At the end of the experiment, the amount of ATP was determined using BriteLite luciferase homogeneous assay as a measure of cell viability. The data were then processed together with data from the reporter assays.
(A reporter such as luciferase makes a cellular process visible.)

For the next series, the target named is luciferase (Photinus pyralis, UniProt P08659). The series can be described thus: Luciferase activity in U2OS cell line constitutively expressing luciferase gene. Format: cell-based. Conditions: read-out: Luciferase activity IC50. As for the experimental part: In order to distinguish between the specific, steroid hormone response elements-driven regulation of the luciferase expression and the possible effects of test compounds on the luciferase activity, compounds were tested in parallel experiment on a U2OS cell line constitutively expressing luciferase gene.
Luciferase activity was determined by a commercial kit Britelite plus a luciferase reporter gene assay reagent (Perkin Elmer, USA), 24 h after addition of compounds to cells. The intensity of luminescence was measured on an Envision multimode spectrophotometer (PerkinElmer).

In another series the test system is A549. The series can be described thus: MTT cytotoxicity assay, A549. Format: cell-based. Conditions: Homo sapiens. An excerpt:
(§1) Compounds 5, 6, 7, 9, 14 and 15 were used for evaluation of antitumor activity. MTT cytotoxicity assay was used in vitro on cell lines derived from normal tissues and from tumors. Specifically, these were the K562 line (human myeloid leukemia), K562-Tax (human myeloid leukemia resistant to taxol and overexpressing PgP protein for multidrug resistance), CEM (T-lymphoblastic leukemia), CEM-DNR bulk (T-lymphoblastic leukemia resistant doxorubicin, lacking the expression of the target gene for inhibitors of topoisomerase II alpha), A549 line (human lung adenocarcinoma), HCT116p53 wt (human colon cancer), HCT116p53−/− (human colon cancer, mutant p53), U2OS line of human osteosarcoma and two fibroblast lines MRC5 and BJ as examples of non-tumor cells. Expression characteristics, profiles of susceptibility to classical antitumor drugs and methodology of the MTT cytotoxicity assay were repeatedly published (e.g. Noskova et al. Neoplasma 2002, 49, 418; S̆arek et. al. J. Med. Chem. 2003, 46, 25, 5402).

The subject of a further series is U2OS. Put plainly: MTT cytotoxicity assay, U2OS. Type of series: cell-based. The settings on record: Homo sapiens.
Source text: as §1
Background: Tetrazolium assays rely on reduction of a dye to a coloured formazan, in cell work by metabolically active cells.

Series [1] addresses T1, estrogen receptor α (ERα) (Homo sapiens, UniProt P03372).
T1 construct: expressed in transfected cells
T1 sequence (P03372 1-595): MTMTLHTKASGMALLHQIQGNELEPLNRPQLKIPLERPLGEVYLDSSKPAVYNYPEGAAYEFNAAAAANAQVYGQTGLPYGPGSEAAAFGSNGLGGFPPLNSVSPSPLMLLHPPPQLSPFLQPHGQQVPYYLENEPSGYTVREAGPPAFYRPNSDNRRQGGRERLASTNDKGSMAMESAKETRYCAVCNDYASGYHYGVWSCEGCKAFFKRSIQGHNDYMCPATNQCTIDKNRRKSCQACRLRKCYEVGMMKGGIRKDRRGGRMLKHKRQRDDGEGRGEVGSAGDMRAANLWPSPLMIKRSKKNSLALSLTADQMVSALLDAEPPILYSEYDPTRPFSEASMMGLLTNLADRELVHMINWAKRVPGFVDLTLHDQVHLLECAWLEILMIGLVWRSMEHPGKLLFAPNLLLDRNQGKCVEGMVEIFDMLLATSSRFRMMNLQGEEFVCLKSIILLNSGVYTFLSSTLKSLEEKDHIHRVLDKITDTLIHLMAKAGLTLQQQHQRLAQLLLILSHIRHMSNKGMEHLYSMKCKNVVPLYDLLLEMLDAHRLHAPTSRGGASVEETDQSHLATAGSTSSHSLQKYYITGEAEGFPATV
The series can be described thus: ERα luciferase reporter assay in U2OS cells. Format: cell-based. The settings on record: testing range 10 μmol·l^−1 to 1 nmol·l^−1.

The next series deals with CEM. Put plainly: MTT cytotoxicity assay, CEM. Type of series: cell-based. The settings on record: Homo sapiens, CCRF-CEM.
Source text: as §1

For series [2], the target named is T2, human 17βHSD1 (Homo sapiens, UniProt P14061).
T2 sequence (P14061 1-328): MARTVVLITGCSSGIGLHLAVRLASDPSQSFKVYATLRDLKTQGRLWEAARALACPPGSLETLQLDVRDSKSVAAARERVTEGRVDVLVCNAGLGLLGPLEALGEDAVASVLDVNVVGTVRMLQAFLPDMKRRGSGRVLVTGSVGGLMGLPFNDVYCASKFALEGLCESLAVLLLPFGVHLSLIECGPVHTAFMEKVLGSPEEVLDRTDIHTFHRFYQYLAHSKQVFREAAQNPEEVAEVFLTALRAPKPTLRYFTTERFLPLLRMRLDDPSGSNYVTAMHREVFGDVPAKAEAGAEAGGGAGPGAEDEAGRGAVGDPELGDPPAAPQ
The series can be described thus: 17βHSD inhibition in CHO cells transfected with human 17βHSD1, E1 in supernatant. Type of series: cell-based. More on the design: expressed in transfected cells. The settings on record: 10 μmol·l^−1. Here is the method:
(§2) For this experiment, non-cytotoxic concentrations of estrone derivative (10 μmol·l^−1) were used. E1 levels were determined by an immuno-enzymatic assay.

In series [3] the target is T2, human 17βHSD1. Put plainly: 17βHSD inhibition in MCF-7 cells transfected with human 17βHSD1, E1 in supernatant. Type of series: cell-based. More on the design: expressed in transfected cells; host or cells: MCF-7. Conditions: 10 μmol·l^−1. As for the experimental part:
as §2

The subject of the next series is HCT116p53 wt. Put plainly: MTT cytotoxicity assay, HCT116p53 wt. Type of series: cell-based. The settings on record: Homo sapiens.
Source text: as §1

The test system of the next series is MRCS. Put plainly: MTT cytotoxicity assay, MRC5 fibroblasts. Type of series: cell-based. Conditions: Homo sapiens, Fibroblast, non-tumor fibroblasts.
Source text: as §1

A further series has as its target T3, human 17βHSD type 5 (Homo sapiens, UniProt P42330).
T3 construct: made in house; host or cells: bacteria (Escherichia coli); supernatant of the lysate
T3 sequence (P42330 1-323): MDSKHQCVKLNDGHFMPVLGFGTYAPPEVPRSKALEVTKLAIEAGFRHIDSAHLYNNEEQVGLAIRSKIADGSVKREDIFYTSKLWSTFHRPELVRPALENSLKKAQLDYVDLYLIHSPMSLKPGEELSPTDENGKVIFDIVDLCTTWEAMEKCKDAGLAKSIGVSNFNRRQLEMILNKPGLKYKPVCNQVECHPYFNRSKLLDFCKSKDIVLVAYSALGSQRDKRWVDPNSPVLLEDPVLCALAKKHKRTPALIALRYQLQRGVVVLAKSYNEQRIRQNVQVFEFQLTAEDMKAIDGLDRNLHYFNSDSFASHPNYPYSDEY
Put plainly: Inhibition of recombinant 17βHSD type 5, tritium-labeled substrate conversion. Format: biochemical. Conditions: 1 μmol · l^−1 test substance. Here is the method:
(§3) The inhibitory activity of the test substances was determined for individual isoenzymes from the 17βHSD family, specifically these were the types 1, 2, 3, 4, 5 and 7. Escherichia coli and mammalian cells expression systems were used for recombinant expression of individual isozymes of human 17βHSD. Only in the case of 17HSD5 the enzyme was partially purified and supernatant obtained by centrifugation of the bacterial lysate was used for testing. Systems expressing specific 17βHSD type were suspended in a reaction buffer and incubated with tritium-labeled substrates and respective cofactors at 37° C. in two parallel tests: the control arrangement (DMSO without the inhibitor) and the test arrangement (DMSO with the inhibitor). DMSO serves as a negative control in this case. After 20-30% of the substrate was converted by the activity of the enzyme to the product in a control test, both tests were terminated. Substrate and product from the test arrangement were isolated by SPE (solid phase extraction), and then separated by reverse phase HPLC. Substrate conversion was determined by integration of the signals of the substrate and product, and was expressed in %. For the purposes of the subsequent calculation of enzyme inhibition, the conversion of the control test was designated as 0% inhibition. All tests were performed in triplicates. IC50 values were subsequently determined by a standard method using the “One Ligand Binding” model of SigmaPlot kinetics module (Schustera et. al. J. Ster. Biochem. Mol. Biol. 2011, 125, 148; Möller et. al. Biioorg. Med. Chem. Lett. 2009, 19, 6740; Möller et. al. PLoS One, 2010, 5, 6, e10969).

Another series concerns HCT116p53-/-. Put plainly: MTT cytotoxicity assay, HCT116p53-/-. The settings on record: Homo sapiens. Format: cell-based.
Source text: as §1

The next series has as its system CEM-DNR-bulk. Put plainly: MTT cytotoxicity assay, CEM-DNR-bulk. Format: cell-based.
Source text: as §1

The test system of the next series is K562. Put plainly: MTT cytotoxicity assay, K562. Conditions: Homo sapiens. Type of series: cell-based.
Source text: as §1

The next series concerns K562-Tax. Put plainly: MTT cytotoxicity assay, K562-Tax. Type of series: cell-based. Conditions: Homo sapiens.
Source text: as §1

A further series concerns BJ. The series can be described thus: MTT cytotoxicity assay, BJ fibroblasts. Type of series: cell-based. Conditions: Homo sapiens, non-tumor fibroblasts.
Source text: as §1

The target in another series is T4, human 17βHSD type 1 (Homo sapiens, UniProt P14061).
T4 construct: made in house; expressing system suspended in buffer, not purified
T4 sequence (P14061 1-328): T2 sequence (P14061 1-328)
Put plainly: Inhibition of recombinant 17βHSD type 1, tritium-labeled substrate conversion. Type of series: biochemical. As for the experimental part:
as §3

A further series concerns the target T5, 17βHSD5 (Homo sapiens, UniProt P42330).
T5 sequence (P42330 1-323): T3 sequence (P42330 1-323)
The settings on record: cited from earlier work; for IC50: literature.

Like-named read-outs stand apart in the source and are kept apart here.

Turning to `C[C@]12CC[C@@H]3c4ccc(O)cc4CC[C@H]3[C@@H]1C[C@H](Cc1cccc(C(N)=O)c1)[C@@H]2O` [Compound E2B, 16β-m-carbamoylbenzyl-E2], the “reduction of proliferation induced by the physiological level of E1” value with T-47D ER+ cells is recorded as 62%.

`CC#C[C@]1(O)CC[C@H]2[C@@H]3CCC4=CC(=O)CCC4=C3[C@@H](c3ccc(N(C)C)cc3)C[C@@]21C` [RU486, reference compound]: the IC50 (commonly the concentration that inhibits the measured activity by half) was determined as 47.7 µM in the series with U2OS cells (Homo sapiens) and 17.9 µM at luciferase.

“4-hydroxytamoxifen [Compound 4-OHT, reference compound]”: the IC50 worked out at 12 µM in the series with U2OS cells and 10.2 µM at luciferase.

Take `COC(=O)c1ccc(CC[C@@H]2CC(=O)[C@@]3(C)CC[C@@H]4c5ccc(O)cc5CC[C@H]4[C@H]23)cc1` [Compound 7, Methyl 4-(2-(3-hydroxy-estra-1,3,5(10)-trien-17-on-15β-yl)ethyl)benzoate]: the melting point (in general, the temperature of the solid-liquid transition) came to 139 °C. This compound also yielded an IC50 with A549 greater than 50 µM. In the series with U2OS, the IC50 was greater than 50 µM. The “ER antagonism in words” value in series [1] was “ER antagonist”. In the series with CEM, the half-maximal inhibitory concentration (IC50) amounted to 25.6 µM. Moreover, at human 17βHSD1 [2] (8 hr.), the “E1 in supernatant, CHO” value is 2101 pg/mL. In addition, on human 17βHSD1 [2] (24 hr.), the “E1 in supernatant, CHO” value worked out at 1476 pg/mL. In addition, the “E1 in supernatant, MCF-7” value at human 17βHSD1 [3] (8 hr.) amounted to 1921 pg/mL. Moreover, at human 17βHSD1 [3] (24 hr.), the “E1 in supernatant, MCF-7” value was 1839 pg/mL. Moreover, the IC50 in the series on HCT116p53 wt is greater than 50 µM. For the same compound, the 50% inhibitory concentration (IC50) in the series on MRCS is greater than 50 µM. Further, the “% of inhibition of human 17βHSD5” value on human 17βHSD type 5 came to 63%. The compound also displayed an IC50 in the series on HCT116p53-/- greater than 50 µM. This compound had an IC50 with CEM-DNR-bulk of 32.8 µM. In the series with K562, this compound displayed an IC50 greater than 50 µM. In the series on K562-Tax, it took 12.5 µM to reach half-maximal inhibition (IC50). Besides, the IC50 with BJ was greater than 50 µM. Also, the inhibition (in general, the share of the control response that was lost under treatment) at 0.1 µM on human 17βHSD type 1 (0.1 μmol · l^−1 test substance, read-out: % of inhibition of human 17βHSD1) is 84%. On human 17βHSD type 1 (1 μmol · l^−1 test substance, read-out: % of inhibition of human 17βHSD1), the inhibition at 1 µM turned out to be 99%. Besides, the half-maximal inhibitory concentration (IC50) on human 17βHSD type 1 (read-out: 17βHSD1 IC50) amounted to 0.016 µM.

On to “3-deoxyestradiol with C-17-dimethyl-spiro-δ-lactone”, for which the IC50 on 17βHSD5 is 0.0029 µM.

As for `CC1(C)CCC2(CCC3C4CCc5cc(C(N)=O)ccc5C4CCC32C)OC1=O` [EM1404, 3-carboxamido-1,3,5-(10)-estratrien-17(R)-spiro-2-(5,5-dimethyl-6-oxo)tetra-hydro-pyran], the Ki (as a rule, a measure of affinity in units of concentration, obtained from inhibition or displacement) on 17βHSD5 (Qiu et al. 2007, WO9946279) is 0.0069 µM. For the same compound, the IC50 on 17βHSD5 is 0.0032 µM.

The record behind these values is patent US10759826B2, “15β-substituted estrone derivatives as selective inhibitors of 17β-hydroxysteroid-dehydrogenases, method of preparation and use thereof” (USTAV ORGANICKE CHEMIE A BIOCHEMIE AV CR, V.V.I., priority 2016, dated 2020).
